Consider 14 compounds from US20090318485A1, “NOVEL INHIBITORS OF RHO KINASE” (KALYPSYS, INC., priority 2006, published 2009).

Some results are limits rather than exact numbers.

For assay [1], the target named is T1, recombinant N-terminal GST-tagged human Rho kinase 1 (ROCK1, amino acids 1-535) (Homo sapiens, UniProt Q13464).
T1 construct: human Rho kinase 1 (ROCK1, amino acids 1-535, Invitrogen Inc); purchased Invitrogen Inc. PV-3691
Description: In vitro Rho kinase assay (luciferase-based ATP consumption), ROCK1. It is filed as biochemical. The settings on record: 3 μM ATP, S6 peptide substrate, 30° C. for 2 hours; read-out: ROCK 1 IC50. On the procedure: (§1) In Vitro Rho Kinase Assay
(§2) Rho kinase biochemical assays described below depend on firefly luciferase-based, indirect measurement of total ATP consumption by the kinase following incubation with substrate and ATP. […] The plate is centrifuged for 30 seconds at approximately 200×g. 240 nl of test compound in DMSO is dispensed to each well by passive pin transfer. The lag phase of this in vitro kinase reaction permits addition of compounds soon after the reaction initiates. The reaction is allowed to incubate at 30° C. for 2 hours. The assay plates are sealed and maintained in a humidified environment. […] After an additional 10 minute incubation at room temperature (about 22° C.), luminescence activity is measured on a Molecular Devices Analyst multi-mode plate reader or other suitable plate reader. Kinase inhibition results in less ATP consumption, and therefore increased luminescence signal. Negative control activity is measured with DMSO lacking any test compound. The positive control is 2-methyl-1-(4-methylisoquinolin-5-ylsulfonyl)perhydro-1,4-diazepine hydrochloride (aka H-1152P, HCl salt). Efficacy is measured as a percentage of positive control activity.

For assay [2], the target named is T2, recombinant N-terminal GST-tagged human Rho kinase 2 (ROCK2, amino acids 1-552) (Homo sapiens, UniProt O75116).
T2 construct: human Rho kinase 2 (ROCK2, amino acids 1-552, Invitrogen Inc); purchased Invitrogen Inc. PV3759
Description: In vitro Rho kinase assay (luciferase-based ATP consumption), ROCK2. The assay is classed as biochemical. The settings on record: 3 μM ATP, S6 peptide substrate, 30° C. for 2 hours; read-out: ROCK 2 IC50. On the procedure:
as §1, §2

T2 sequence (O75116 1-552): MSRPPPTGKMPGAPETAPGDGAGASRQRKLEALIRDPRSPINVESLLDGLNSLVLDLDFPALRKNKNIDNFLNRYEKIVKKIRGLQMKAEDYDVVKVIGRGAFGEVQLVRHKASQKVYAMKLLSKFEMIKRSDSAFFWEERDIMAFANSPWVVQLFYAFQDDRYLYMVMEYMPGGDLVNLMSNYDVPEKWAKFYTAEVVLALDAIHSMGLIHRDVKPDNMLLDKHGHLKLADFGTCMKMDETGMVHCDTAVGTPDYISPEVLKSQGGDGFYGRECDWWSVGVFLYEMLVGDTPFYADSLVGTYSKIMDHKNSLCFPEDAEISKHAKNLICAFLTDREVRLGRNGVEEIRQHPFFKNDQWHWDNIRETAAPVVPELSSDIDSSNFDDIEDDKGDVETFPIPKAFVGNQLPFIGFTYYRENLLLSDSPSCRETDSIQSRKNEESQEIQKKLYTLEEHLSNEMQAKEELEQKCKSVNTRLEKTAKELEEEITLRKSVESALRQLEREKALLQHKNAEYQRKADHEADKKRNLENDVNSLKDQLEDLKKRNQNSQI
T1 sequence (Q13464 1-535): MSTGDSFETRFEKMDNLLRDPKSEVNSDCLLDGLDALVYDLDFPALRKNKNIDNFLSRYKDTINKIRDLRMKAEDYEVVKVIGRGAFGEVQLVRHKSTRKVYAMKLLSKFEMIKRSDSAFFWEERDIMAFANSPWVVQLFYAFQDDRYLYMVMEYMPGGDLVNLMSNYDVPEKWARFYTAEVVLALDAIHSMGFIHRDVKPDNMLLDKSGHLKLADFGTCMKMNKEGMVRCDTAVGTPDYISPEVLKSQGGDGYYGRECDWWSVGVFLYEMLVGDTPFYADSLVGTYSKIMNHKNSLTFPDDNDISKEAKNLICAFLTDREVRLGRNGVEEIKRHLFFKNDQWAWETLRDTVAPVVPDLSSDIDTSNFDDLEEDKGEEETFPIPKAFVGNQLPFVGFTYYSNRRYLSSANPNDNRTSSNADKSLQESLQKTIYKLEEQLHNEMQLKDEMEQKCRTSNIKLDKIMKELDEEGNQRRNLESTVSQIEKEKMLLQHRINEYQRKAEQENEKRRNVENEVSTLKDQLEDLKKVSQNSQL

As to `C=CCc1cccc2cc(C(N)=O)c(=N)oc12` [Example 1], the IC50 in assay [1] and in assay [2] was at most 5 µM in each case.

For `Cc1cc(C)c2c(N)c(C(N)=O)sc2n1` [Example 2], the IC50 in assay [1] and in assay [2] was at most 5 µM each time.

`CC(C)c1cc2cc(/C=C/C(=O)O)c(O)cc2o1` [Example 3]: the IC50 in assay [1] and in assay [2] was at most 5 µM throughout.

With `CN(C)CCN(Cc1ccccc1)Cc1cc(-c2ccnc3cc(Cl)ccc23)ccc1O` [Example 4], the IC50 in assay [1] is over 5 µM; in assay [2], at most 5 µM.

For the compound `CSc1nc(-c2ccncc2)nc(N)c1C#N` [Example 5], the IC50 in assay [1] and in assay [2] was at most 5 µM each time.

On to `CC(C)(CO)CNc1nc(-c2ccncc2)cnc1N` [Example 6], for which the IC50 in assay [1] and in assay [2] was at most 5 µM throughout.

For the compound `CC(CCc1ccc(O)cc1)Nc1ccc2[nH]ncc2c1` (stereo not drawn) [Example 7], the IC50 in assay [1] was at most 5 µM; in assay [2], over 5 µM.

Regarding `CC(OC(=O)c1ccc(O)cc1)C(=O)Nc1ccc(Cl)c(Cl)c1` (stereo not drawn) [Example 8], the 50% inhibitory concentration (IC50) in assay [1] and in assay [2] was at most 5 µM in each case.

Regarding `C=CCN(CC=C)S(=O)(=O)c1ccc2nc(N)sc2c1` [Example 9], the IC50 in assay [1] and in assay [2] was at most 5 µM in each case.

For `Cc1cc(=O)oc2cc(OC(C)C(=O)Nc3nccs3)ccc12` (stereo not drawn) [Example 10], the IC50 in assay [1] was over 5 µM.

For the compound `O=C1NC(=Cc2ccc(O)c(Br)c2)C(=O)N1Cc1ccccc1F` [Example 11], the concentration for half-maximal inhibition (IC50) in assay [1] and in assay [2] was at most 5 µM throughout.

For the compound `CCOC(=O)c1nnn(-c2nonc2N)c1-c1ccccc1Cl` [Example 12], the IC50 in assay [1] and in assay [2] was over 5 µM in each case.

With `CC1CCC(C(=O)NC(C(=O)Nc2ccncc2)C(C)C)CC1` (stereo not drawn) [Example 13], the IC50 in assay [1] and in assay [2] was at most 5 µM throughout.

On to `Clc1ccc(Cn2cc(-c3ccncc3)cn2)c(Cl)c1` [Example 15], for which the IC50 in assay [1] and in assay [2] was at most 5 µM in each case.

What is called IC50 is the midpoint of a concentration-inhibition curve.
